Experiments:
Assay type in all cases: in vivo
mouse = assay: PAF (Platelet Activating Factor) lethality assay; conditions: for PAF lethality survival (%): Dose 50 mg/kg
From the text: (§1) The compounds of formulae (I) and (II) of this invention can be shown to inhibit lipoxygenase according to various testing methods. Such methods include the following: RPC (Rat Peritoneal Cavity resident cells) assay according to methods described in Jap. J. Inflammation 7:145-150 (1987), "Synthesis of leukotrienes by peritoneal macrophages"; PAF (Platelet Activating Factor) lethality assay according to methods described in Prostaglandisis 30(4):545-551 (1985); and y-RFE (yeast induced Rat Foot Edema) assay according to methods described in Biochem. Pharmacol. 36:547 (1987).
In the PAF lethality assay, the compound of Example 5, as shown in the Table above, gave a high (69%) survival percentage. The term "survival percentage" herein means the inhibitory efficacy to shock death of the mouse through lipoxygenase metabolites activated by dosing with PAF.

male ICR mice = assay: Acute toxicity after oral administration; conditions: 7 hours after oral administration at 600 mg/kg to male ICR mice
Experimental: Acute toxicity of the compound of Example 5 was investigated 7 hours after oral administration at 600 mg/kg to male ICR mice (Charles River Japan Inc., 5 weeks old, avg. body weight of 28 g).

rat foot = assay: y-RFE (yeast induced Rat Foot Edema) assay; conditions: Dose 60 mg/kg; rat foot edema induced by yeast suspension
From the text: as §1
Furthermore, in the y-RFE assay, the compound of Example 5, as shown in the Table above, gave a high (69%) edema inhibitory percentage. The term "edema inhibitory percentage" herein means the inhibitory efficacy to the swelling of inflammatory edema of the rat foot induced by the injection of yeast suspension.

| SMILES | PAF lethality survival (%) (mouse) | Acute toxicity (male ICR mice) | ED50 (mouse; Platelet, read-out: ED₅₀ value in the PAF lethality assay) | y-RFE edema inhibitory (%) (rat foot) |
| --- | --- | --- | --- | --- |
| O=c1[nH]c2c(c(=O)[nH]1)Nc1ccccc1S2 [Example 1, 1,5-Dihydro-2H-pyrimido[4,5-b][1,4]benzothiazine-2,4(3H)-dione] | 56% |  |  |  |
| Cn1c(=O)[nH]c2c(c1=O)Nc1ccccc1S2 [Example 2, 1,5-Dihydro-3-methyl-2H-pyrimido[4,5-b][1,4]benzothiazine-2,4(3H)-dione] | 30% |  |  |  |
| Cn1c(=O)nc2sc3ccccc3nc-2c1=O [Example 5, 3-Methyl-2H-pyrimido[4,5-b][1,4]benzothiazine-2,4(3H)-dione] | 69% | did not show any acute toxic symptoms | 51 mg/kg | 69% |
